Assay [1] deals with SOCS1, JAK2 and STAT1 in mesangial cells. Kind of assay: SOCS1/JAK2/STAT1 proteins (IF, Western blotting), mesangial cells. As to conditions: anti-dsDNA IgG 2 µg/ml premixed with peptide 1 µg/ml, 2 days. The assay is classed as cell-based, murine. The protocol:
Immunofluorescence was carried out for both IgG deposition and SOCS1 expression in frozen sections. Routinely processed sections were incubated with rabbit anti-mouse SOCS1 and then fluorescein isothiocyanate (FITC)-conjugated goat anti-rabbit IgG (2 µg/ml; Southern Biotech, Birmingham, AL, USA) in order, or directly with goat anti-mouse IgG-FITC (Southern Biotech) alone. Sections were viewed under a digital fluorescent microscope (Carl Zeiss, Jena, Germany).
Immortal murine mesangial cells and glomerular endothelial cells (Jieqing Biotech, Wuhan, China) were cultured in RPMI 1640 medium supplemented with 10% fetal bovine serum ([8], [33]). Immortal murine proximal tubular epithelial cells (kindly provided by Dr. Cheng Pan, Wuhan University, China) were cultured in Dulbecco’s modified Eagle’s medium as described previously ([34]).
By using a HiTrap purification kit (GE Healthcare, Port Washington, NY, USA) ([8]), anti-dsDNA IgG was purified from the culture supernatants of murine WJ31 hydridoma clone (IgG2a; Jieqing Biotech). Control murine IgG (IgG2a; Jieqing Biotech) was verified by enzyme-linked immunosorbent assay (ELISA) to determine that there was no binding to DNA antigen (data not shown). Cells were starved routinely before the 2-day stimulation of anti-dsDNA IgG or control IgG (2 µg/ml). In some experiments, mesangial cells were stimulated with anti-dsDNA IgG (2 µg/ml) that was premixed with D-form (ALWPPNLHAWVP) or scrambled (PLPHNPWVLAAW) ALW peptide (1 µg/ml). The cell viability of three types of cells was measured using PrestoBlue viability reagent (Life Technologies, Carlsbad, CA, USA).
Fresh tissues and cell cultures were extracted for lysates with the addition of protease inhibitor cocktail (Thermo Scientific, Waltham, MA, USA). […] The band intensities were quantitated by ImageJ 1.61u software (National Institutes of Health, Bethesda, MD, USA) and normalized to β-actin values accordingly. The intensities of blank groups were set as 1 (baseline), and the relative intensities were calculated in other groups.
(In general: In western blotting, separated proteins are transferred to a membrane and probed.)

The subject of assay [2] is kidneys of SCID mice. Kind of assay: Renal mRNA levels by real-time PCR, SCID mice. The assay is classed as in vivo. As to conditions: i.v. The source says: Renal biopsies were obtained from patients with LN (n = 7), who had serum positivity of anti-dsDNA IgG (Table S1 in Supplementary Material). The diagnosis of LN was made based on the histological features of renal biopsies. For normal human controls, sera and non-lesional tissues were taken from patients (n = 5) who underwent surgical nephrectomy due to renal cell carcinoma or renal rupture (Table S1 in Supplementary Material). There was no statistical difference in term of age between the LN patients and the controls (p > 0.05). […] The MRL/lpr and MRL/MpJ mice (female, 12 or 24 weeks old, n = 5 each group) as well as SCID mice (female, 8 weeks old, n = 5 each group) were bred in the animal facility of Xi’an Jiaotong University Health Science Center. Urine, sera, and renal tissues were harvested from MRL/lpr and MRL/MpJ mice. Proteinuria was quantitated by the Coomassie brilliant blue method ([32]). All data about MRL/lpr and MRL/MpJ mice referred to that at age of 24 weeks unless otherwise noted. These SCID mice received intravenous injections of anti-dsDNA or control IgG at a dose of 100 µg twice weekly, which lasted for 4 weeks (n = 5 each group). Then, both serum and kidney samples were collected from SCID mice. This study was carried out in accordance with the recommendations of the guidelines of the Hospital Research Ethics Committee with written informed consent from all subjects. All subjects gave written informed consent in accordance with the Declaration of Helsinki. The protocol was approved by the Hospital Research Ethics Committee.
As previously described ([8]), total RNA was extracted from fresh tissues or cultured cells, followed by reverse transcription. The 7900HT Fast PCR System (Applied Biosystems, Carlsbad, CA, USA) was used for PCR, and SYBR Green Master Mixes (Invitrogen, Grand Island, NY, USA) was used as fluorescent dye. The sequences of primers (Jieqing Biotech) are listed in Table S2 in Supplementary Material.

The mark [3] stands for this setting: D-form ALW plus anti-dsDNA IgG, n = 5, versus anti-dsDNA IgG alone.
Setting [4] is: anti-dsDNA IgG pre-mixed with D-form ALW, n = 5.

From PMC5449454, “Anti-Double-Stranded DNA IgG Participates in Renal Fibrosis through Suppressing the Suppressor of Cytokine Signaling 1 Signals” (Frontiers in Immunology, 2017) come the findings set out here.

Consider “ALWPPNLHAWVP [D-form ALW, ALW peptide with two terminal residues A and P replaced with D-form ones]”, for which, in assay [1], the “JAK2 protein, ALW plus anti-dsDNA IgG (consistent with mRNA decrease)” value is “consistent changes”; the “SOCS1 protein level, ALW plus anti-dsDNA IgG” value is reported as “increased”; the “STAT1 protein, ALW plus anti-dsDNA IgG (consistent with mRNA decrease)” value is reported as “consistent changes”. In addition, in assay [2] (setting [3]), the “renal JAK2 mRNA level, ALW plus anti-dsDNA IgG” value is “reduced”; the “renal SOCS1 mRNA level, ALW plus anti-dsDNA IgG” value was “not affected”; the “renal STAT1 mRNA level, ALW plus anti-dsDNA IgG” value was “reduced”. Further, in assay [2] (setting [4]), the “renal PDGFB mRNA level, ALW plus anti-dsDNA IgG” value is listed as “substantial decrease”; the “renal TGF-β1 mRNA level, ALW plus anti-dsDNA IgG” value is “substantial decrease”; the “renal TWEAK mRNA level, ALW plus anti-dsDNA IgG” value is on record as “substantial decrease”.
